Converted amounts (≈) assume the structure as drawn. “Also recorded” adds a separate entry of the source. Read-outs that look alike come from different tables or passages of the source.
How the values were obtained:
C. neoformans [1] = assay: Growth inhibition assay (Bioscreen C, 2-fold dilution series, plating for fungicidal vs fungistatic) in C. neoformans; format: cell-based, Cryptococcus neoformans H99; details: for antifungal activity (in words): dose-response; for fungicidal activity, lowest concentration: plated after 72 h, 24 h recovery at 30° on Sabouraud agar
Protocol: Primary screen and dose-response of selected candidates. To identify antifungal candidates in the MMV Malaria Box, the inventors initially casted the widest possible net. Growth inhibition assays were done using the Bioscreen C™ with constant agitation, in rich media and physiological relevant temperature of 37° to test the 400 antimalarial compounds against C. neoformans. […] To examine whether or not each dose was fungicidal or just fungistatic, the inventors plated a sample of each dilution after 72 hours. They were allowed to grow at the optimal growth temperature of 30° for 24 hours on Sabouraud rich agar plates and colonies were examined for growth. […]
(§1) Strains. H99 (Serotype A) is a well-characterized wild type laboratory reference strain of Cryptococcus neoformans (22). H99 was selected because it is a virulent strain widely by the field. Cryptococcus gattii strain R265 is used as the primary reference strain to which the genome is based (ATCC MYA-4093). This strain was isolated from the Vancouver Island (British Columbia, Canada) outbreak of 2004 (23, 24). H99 and R265 were maintained in Sabouraud (Sab) dextrose broth at 30° C. with constant 200 RPM agitation. One day prior to each experimental drug treatment, Sab broth was inoculated from glycerol stock and grown overnight to log phase before washing with PBS and resuspending in fresh Sab broth prior to treatment.
(§2) Compound library. 400 compounds were made available by the Medicines for Malaria Venture (Geneva, Switzerland) in the form of the open-access MMV Malaria Box. Compounds were stored at −80° C. in 100% DMSO at a concentration of 10 mM. Before usage, compounds were thawed at room temperature and thoroughly mixed. Compounds were diluted in 2-fold series 10 mM down to […] with DMSO before subsequent growth inhibition assays. Growth inhibition assays. The effectiveness of these MMV Malaria Box compounds against C. neoformans was measured by turbidity over time. The Bioscreen C™ (Growth Curves USA, Piscataway, N.J.) allows us to analyze ˜60 compounds at a time in triplicate with constant temperature and agitation. Assays were measured at 420-580 nm, wideband range every 15′ for 72 h at 37° C. to simulate physiologically relevant temperatures. Wideband is generally used for turbidity measurements, as it is mostly insensitive to changes in color. […] We inoculated 5×10^3 H99 C. neoformans and SC5314 C. albicans in 200 μl of Sabouraud dextrose broth in each of the honeycomb (HC-2) plate's 100 wells. A two-fold dilution series of each compound from 50 μM down to 0.39 μM final concentration were tested for effects against C. neoformans. To qualitatively differentiate fungistatic and fungicidal activity, 5 μl of each well after 72 h were spotted on Sabouraud dextrose agar rich media plates and allowed to grow at the optimal temperature 30° C. to induce a full recovery of viable yeast. Spots were noted after 24 h to identify fungicidal versus fungistatic concentrations of each compound. […] Mammalian cell viability and toxicity assays.

human fibroblast = assay: Toxicity against human fibroblast; format: cell-based
Text: XlogP values are derived from PubChem and describe the lipophilicity of the molecule. The topological polar surface area (tPSA) is a metric for predicting cell penetration, with values <140 to be favorable. […] Toxicity against human fibroblast was used to calculate the therapeutic index TI.

L. prolificans = assay: Growth inhibition assay, 2-fold dilution series, in L. prolificans; format: cell-based, Lomentospora prolificans; details: for MIC: Lomentospora prolificans, after 72 h
C. gattii = assay: Growth inhibition assay, 2-fold dilution series, in C. gattii; format: cell-based, Cryptococcus gattii R265; details: for MIC: Cryptococcus gattii, after 72 h
Protocol: as §1, §2

C. albicans = assay: Growth inhibition assay, 2-fold dilution series, in C. albicans; format: cell-based, Candida albicans SC5314; details: for MIC: Candida albicans, after 72 h
Protocol: as §2

[2] = test system: murine bone marrow derived macrophages (BMDM); assay: Mammalian cell viability, MTT assay in BMDM; format: cell-based
[3] = test system: murine bone marrow derived macrophages (BMDM); assay: Mammalian cell lysis, LDH release assay in BMDM; format: cell-based
C. neoformans [4] = assay: Imaging flow cytometry (Amnis ImageStream) of DM262 treated C. neoformans; format: cell-based, Cryptococcus neoformans
[5] = 72 h drug exposure in liquid culture, then recovery on agar plates overnight
[6] = Cryptococcus neoformans, C. neoformans, after 72 h, read-out: MIC
[7] = highest concentration studied 50 μM

In the case of `Cc1ccc(Nc2nc(-c3ccccn3)cs2)cc1` [Compound 64], the MIC (C. neoformans [1]; [5]) is reported as 1.6 µg/mL and the “antifungal activity (in words)” value (C. neoformans [1]; C. neoformans) is reported as “low activity”.
With `O=C(Nc1cccc(C(F)(F)F)c1)c1cc(Cl)ccc1O` [Compound 155] the MIC (C. neoformans [1]; [5]) was 0.5 µg/mL, the “fold more effective than fluconazole (fungicidal activity)” value (C. neoformans [1]; C. neoformans) was 8 fold and the “fungicidal activity, lowest concentration” value (C. neoformans [1]; C. neoformans) was 3.12 µM. It also gave a Toxicity human fibroblast (human fibroblast) of 0.024 µM.
With `Cc1ccc2cc3c(N)c4c(C)ccc(C)c4nc3nc2c1` [Compound 253] the MIC (C. neoformans [1]; [5]) was 7.2 µg/mL, the “antifungal activity (in words)” value (C. neoformans [1]; C. neoformans) was “low activity” and the Toxicity human fibroblast (human fibroblast) was 11.4 µM.
`Cc1ccc2c(c1)c1cc(C)ccc1n2CC(O)CNC1CCCCC1` (centres unmarked) [Compound 380] was tested, and the MIC (C. neoformans [1]; [5]) was 0.9 µg/mL, the “fold more effective than fluconazole (fungicidal activity)” value (C. neoformans [1]; C. neoformans) was 8 fold and the “fungicidal activity, lowest concentration” value (C. neoformans [1]; C. neoformans) was 3.12 µM. The Toxicity human fibroblast (human fibroblast) was 4.03 µM.
In the case of `Nc1ccc(-c2nc3ccc(Cc4ccc5nc(C6CCC(N)CC6)[nH]c5c4)cc3[nH]2)cc1` (centres unmarked) [DM262], the MIC (C. neoformans [1]; [5]) is reported as 0.3 µg/mL, the “fold more effective than fluconazole (fungicidal activity)” value (C. neoformans [1]; C. neoformans) is reported as 16 fold and the “fold more effective than fluconazole (fungistatic activity)” value (C. neoformans [1]; C. neoformans) is reported as 32 fold. The “fungistatic activity, lowest concentration” value (C. neoformans [1]; C. neoformans, 72 h) was 0.8 µM, the “fungicidal activity, lowest concentration” value (C. neoformans [1]; C. neoformans) was 1.56 µM and the MIC (C. neoformans [1]; [6]) was 0.8 µM. For the same compound, the MIC (L. prolificans) was 6.3 µM (≈ 2.75 µg/mL), the “concentration giving significant delay in growth” value (C. gattii) was at least 12.5 µM and the “time until log phase is reached” value (C. gattii; 12.5 μM treatment, growth curves) was “approximately 48 h”. It also gave an MIC (C. gattii) of 50 µM (≈ 21.8 µg/mL), an MIC (C. albicans) of 0.8 µM (≈ 0.349 µg/mL) and a Toxicity human fibroblast (human fibroblast) of 11.4 µM. For the same compound, the “concentration with minimal variance from DMSO vehicle control” value ([2]; BMDM) was “up to 12.5 μM”, the LD50 ([2]; BMDM viability) was 50 µM and the LD50 ([3]; BMDM cell lysis, LDH release) was 50 µM. The “concentration with minimal variance from DMSO vehicle control” value ([3]; BMDM, LDH) was “up to 12.5 μM”, the “concentration at which cells were dramatically trending towards apoptosis (apoptotic index, IDEAS 6.2)” value (C. neoformans [4]; 24 h treatment, morphology of the nucleus) was 6.25 µM and the “effect on average size of the cells” value (C. neoformans [4]; brightfield, ImageStream) was “No significant change; also recorded: no effect”.
Compound `OC(Cn1cncn1)(Cn1cncn1)c1ccc(F)cc1F` [Fluconazole] has an MIC (C. neoformans [1]; [5]) of 7.6 µg/mL, an MIC (C. neoformans [1]; [6]) of 25 µM and an MIC (L. prolificans) of over 50 µM. The fungicidal concentration (L. prolificans; [7]) was over 50 µM, the “response in growth inhibition assay (in words)” value (L. prolificans; up to the highest concentration tested, 50 μM) was “complete resistance” and the “concentration at which growth was unaffected” value (C. gattii) was at most 6.3 µM. The MIC (C. gattii) was 50 µM (≈ 15.3 µg/mL), the “effect on final OD420-580 (in words)” value (C. albicans) was “only slight decrease” and the MIC (C. albicans) was over 50 µM. For the same compound, the fungicidal concentration (C. albicans; [7]) was over 50 µM.

From US11246857B2, “Anti-fungal inhibitors” (THE JOHNS HOPKINS UNIVERSITY, priority 2017, dated 2022)
